The term IC50 denotes the concentration at which inhibition is half-maximal. As a reminder, the IC90 is the concentration needed for an effect of 90%.

The text below walks through data of ChEMBL document CHEMBL4483862, “Open-source discovery of chemical leads for next-generation chemoprotective antimalarials” (2018).

Structures are written as SMILES.

The test system of this assay is Plasmodium berghei. Put plainly: Luciferase/luciferin-expressing antifolate-resistant parasites were used to infect a culture of HepG2 cells that were pre-incubated with compounds. Infected hepatocytes emit light due to the luciferase reaction. Assay results are presented as the percent inhibition of light emission compared to control. […]. As to conditions: sporozoite; for IC90: read-out: LUCIFERASE INFECTION ASSAY - IC90. In kind it is functional.

Setting [1] is: read-out: LUCIFERASE INFECTION ASSAY - IC50.

For the compound `C=CCN(c1ccccc1)S(=O)(=O)c1cccc(C(=O)Nc2ccnn2C(C)C2CC2)c1` (configuration not stated), the 90% effect concentration (IC90) is more than 10 µM. Under “HEPG2TOX_HILL_SLOPE 0.485, HEPG2TOX_R_SQUARED 0.701, PBLUC_HILL_SLOPE 1.26, PBLUC_R_SQUARED 0.254, read-out: LUCIFERASE INFECTION ASSAY - IC50”, the IC50 was more than 10 µM.
On to `Cc1ncc(S(=O)(=O)Cc2ccco2)c(N)n1`, for which the IC90 is more than 13 µM. The half-maximal inhibitory concentration (IC50) under setting [1] was more than 13 µM.
In the case of `CCc1ccc(N(C(=O)C2CCN(C(=O)C(C)(C)C)CC2)c2nc3ccccc3s2)cc1`, the IC90 is more than 10 µM. Further, the IC50 under setting [1] is more than 10 µM.
For `COCCNc1nc2cnc(-c3cccc(Oc4ccccc4)c3)cc2n1C`, the IC90 was more than 10 µM. The IC50 (PBLUC_HILL_SLOPE 2.22, PBLUC_R_SQUARED 0.147, read-out: LUCIFERASE INFECTION ASSAY - IC50) turned out to be 6.81 µM.
For `CC(C)(C)c1cc(NC(=O)CSc2ccc(Cl)cc2)c(C(N)=O)s1`, the IC90 was more than 8.62 µM. Besides, the concentration for half-maximal inhibition (IC50) (FFLUC_HILL_SLOPE 13.8, FFLUC_R_SQUARED 0.177, HEPG2TOX_HILL_SLOPE 8.22, HEPG2TOX_R_SQUARED 0.725, read-out: LUCIFERASE INFECTION ASSAY - IC50) is more than 8.62 µM.
Regarding `Cc1ccc(-n2c(-c3ccc(Cl)c(C)c3)csc2=N)c(C)c1`, the concentration for an effect of 90% (IC90) is more than 9.03 µM. Further, the IC50 under setting [1] was more than 9.03 µM.
`CSc1nc2ccc(NC(=O)c3[nH]c4c(c3C)C(=O)CCC4)cc2s1`: the IC90 is more than 10 µM. Also, under setting [1], the concentration for half-maximal inhibition (IC50) was more than 10 µM.
For `Cc1sc2ncnc(SCC(=O)N3N=C4/C(=C/c5ccccc5)CCCC4C3c3ccccc3)c2c1C` (configuration not stated), the IC90 was more than 10 µM. Further, the IC50 (HEPG2TOX_HILL_SLOPE 0.257, HEPG2TOX_R_SQUARED 0.0474, read-out: LUCIFERASE INFECTION ASSAY - IC50) is more than 10 µM.
Take `Cc1ccc(Br)c(NS(=O)(=O)c2cccc(C(=O)Nc3cccc4c[nH]nc34)c2)c1`: the IC90 was more than 10 µM. Besides, the half-inhibitory concentration (IC50) (FFLUC_HILL_SLOPE 12.1, FFLUC_R_SQUARED 0.239, PBLUC_HILL_SLOPE 20.2, PBLUC_R_SQUARED 0.144, read-out: LUCIFERASE INFECTION ASSAY - IC50) turned out to be 9.98 µM.
As to `CC(C)Cc1ccc(C(C)NC(=O)c2ccc(CN3CCCC3)cc2)cc1` (configuration not stated), the IC90 is more than 10 µM. For the same compound, the concentration for half-maximal inhibition (IC50) (PBLUC_HILL_SLOPE 0.907, PBLUC_R_SQUARED 0.512, read-out: LUCIFERASE INFECTION ASSAY - IC50) stood at 2.16 µM.
As to `c1csc(CNc2ccc3ncc(-c4ccc5[nH]ccc5c4)n3n2)c1`, the IC90 is more than 9.55 µM. For the same compound, the half-maximal inhibitory concentration (IC50) (HEPG2TOX_HILL_SLOPE 1.89, HEPG2TOX_R_SQUARED 0.971, PBLUC_HILL_SLOPE 2.39, PBLUC_R_SQUARED 0.271, read-out: LUCIFERASE INFECTION ASSAY - IC50) is 4.86 µM.
`Cc1cc(C(C)(C)C)cc(S(=O)(=O)Nc2ccc(C(=O)OC(C)C(=O)c3cc(C)n(-c4ccccc4)c3C)cc2)c1C` (configuration not stated): the IC90 was more than 10 µM. For the setting “FFLUC_HILL_SLOPE 4.56, FFLUC_R_SQUARED 0.633, PBLUC_HILL_SLOPE 9.36, PBLUC_R_SQUARED 0.441, read-out: LUCIFERASE INFECTION ASSAY - IC50”, the half-inhibitory concentration (IC50) turned out to be 8.93 µM.
For the compound `CS(=O)(=O)c1ccc(C(=O)OC(C(=O)c2c[nH]c3ccccc23)c2ccccc2)cc1[N+](=O)[O-]` (configuration not stated), the IC90 stood at 7.61 µM. The IC50 (HEPG2TOX_HILL_SLOPE 12.6, HEPG2TOX_R_SQUARED 0.833, PBLUC_HILL_SLOPE 19.7, 53.6, PBLUC_R_SQUARED 0.857, 0.714, read-out: LUCIFERASE INFECTION ASSAY - IC50) came out at 7.02 µM.
Consider `Cc1[nH]c2ccc(C(=O)Nc3nc(CN4CCCC(C)C4)cs3)cc2c1C` (configuration not stated), for which the IC90 was more than 10 µM. The half-inhibitory concentration (IC50) under setting [1] is more than 10 µM.
As to `CCNC(=O)c1cccc(NC(=O)CCC(=O)c2cc(C)ccc2C)c1`, the 90% effect concentration (IC90) is more than 10 µM. Moreover, the IC50 under setting [1] was more than 10 µM.
As for `COc1cc(NC(=O)COC(=O)c2c(C)nn(Cc3ccc(Cl)cc3Cl)c2Cl)c(C)cc1[N+](=O)[O-]`, the IC90 was more than 10 µM. Moreover, the concentration for half-maximal inhibition (IC50) (FFLUC_HILL_SLOPE 1.94, FFLUC_R_SQUARED 0.846, read-out: LUCIFERASE INFECTION ASSAY - IC50) is more than 10 µM.
With `O=C(Nc1ccc(F)cc1F)c1nnsc1S(=O)(=O)c1ccc(Cl)cc1`, the IC90 is more than 7.94 µM. For the same compound, the concentration for half-maximal inhibition (IC50) under setting [1] was more than 7.94 µM.
On to `COc1ccc(OC)c(CCNc2nc3cnc(-c4cc(OC)c(OC)c(OC)c4)cc3n2C)c1`, for which the IC90 was more than 10 µM. Besides, the half-inhibitory concentration (IC50) (PBLUC_HILL_SLOPE 3.05, PBLUC_R_SQUARED 0.174, read-out: LUCIFERASE INFECTION ASSAY - IC50) stood at 7.61 µM.
For `CC(C)n1ncc2cc(NC(=O)C3=Cc4ccccc4OC3)cnc21`, the concentration for an effect of 90% (IC90) was more than 10 µM. In addition, the half-inhibitory concentration (IC50) (PBLUC_HILL_SLOPE 12, PBLUC_R_SQUARED 0.534, read-out: LUCIFERASE INFECTION ASSAY - IC50) turned out to be 9.28 µM.
`c1coc(CC2CCCC2Nc2c3ccccc3nc3ccccc23)c1` (configuration not stated): the concentration for an effect of 90% (IC90) amounted to 1.22 µM. The IC50 (PBLUC_HILL_SLOPE 13.4, PBLUC_R_SQUARED 0.585, read-out: LUCIFERASE INFECTION ASSAY - IC50) stood at 1.04 µM.
For `O=C1C=CC(=O)N1c1ccccc1Oc1ccc(Cl)cc1Cl`, the IC90 was more than 9.88 µM. In addition, under “PBLUC_HILL_SLOPE 0.641, PBLUC_R_SQUARED 0.0559, read-out: LUCIFERASE INFECTION ASSAY - IC50”, the concentration for half-maximal inhibition (IC50) is more than 9.88 µM.
Consider `Cc1ccc(-n2c(SCC(=O)N3CCC(C)Sc4ccccc43)nnc2-c2ccccc2)cc1C` (configuration not stated), for which the IC90 is more than 10 µM. Moreover, the half-inhibitory concentration (IC50) (FFLUC_HILL_SLOPE 12.3, FFLUC_R_SQUARED 0.54, HEPG2TOX_HILL_SLOPE 7.7, HEPG2TOX_R_SQUARED 0.421, PBLUC_HILL_SLOPE 3.98, PBLUC_R_SQUARED 0.233, read-out: LUCIFERASE INFECTION ASSAY - IC50) was 6.2 µM.
For `COc1ccc(C2CC(c3ccccc3)=Nc3ccccc3S2)cc1` (configuration not stated), the IC90 was more than 9.55 µM. Besides, the 50% inhibitory concentration (IC50) (PBLUC_HILL_SLOPE 6.73, PBLUC_R_SQUARED 0.0739, read-out: LUCIFERASE INFECTION ASSAY - IC50) is more than 9.55 µM.
Regarding `Cc1[nH]c2ccccc2c1C(=O)C(=O)Nc1ccc(N2CCCCC2)nc1`, the IC90 is 9.82 µM. Further, the IC50 (PBLUC_HILL_SLOPE 5.45, PBLUC_R_SQUARED 0.664, read-out: LUCIFERASE INFECTION ASSAY - IC50) came to 6.56 µM.
As to `c1ccc(Oc2cccc(-c3ccc4nnc(-c5ccccc5)n4c3)c2)cc1`, the IC90 is more than 10 µM. The IC50 under setting [1] is more than 10 µM.
Regarding `COc1ccc(C2=NN=C/C2=N\Nc2cc(C)cc(C)c2)cc1`, the IC90 worked out at 4.13 µM. Besides, the IC50 (HEPG2TOX_HILL_SLOPE 4.29, HEPG2TOX_R_SQUARED 0.94, PBLUC_HILL_SLOPE 14.3, PBLUC_R_SQUARED 0.412, read-out: LUCIFERASE INFECTION ASSAY - IC50) came out at 3.54 µM.
With `CC(=O)Nc1ccccc1OS(=O)(=O)c1ccc(N2CCCC2=O)cc1`, the IC90 worked out at 1.38 µM. Further, the half-inhibitory concentration (IC50) (HEPG2TOX_HILL_SLOPE 1.61, HEPG2TOX_R_SQUARED 0.866, PBLUC_HILL_SLOPE 5.07, PBLUC_R_SQUARED 0.799, read-out: LUCIFERASE INFECTION ASSAY - IC50) was determined as 0.894 µM.
`CCc1cccc(CC)c1N(C(C)=O)c1nc(/C=C/C(=O)c2cc3ccccc3o2)cs1`: the IC90 turned out to be 6.49 µM. Where the note is “FFLUC_HILL_SLOPE 3.93, FFLUC_R_SQUARED 0.771, PBLUC_HILL_SLOPE 5.3, PBLUC_R_SQUARED 0.865, read-out: LUCIFERASE INFECTION ASSAY - IC50”, the 50% inhibitory concentration (IC50) is 4.29 µM.
For `O=C(c1cc(C(=O)N2CCCC2)c2nc3scc(-c4ccccc4)c3c(=O)n2c1)c1ccccc1O`, the IC90 was more than 10 µM. Under setting [1], the IC50 is more than 10 µM.
Regarding `Cc1c(C(=O)Nc2nonc2-c2ccc3c(c2)CCCC3)oc2ccccc12`, the concentration for an effect of 90% (IC90) was more than 8.84 µM. The concentration for half-maximal inhibition (IC50) under setting [1] is more than 8.84 µM.
As for `CCCCNC(=O)Nc1nc(-c2ccccc2)cn1/N=C/c1ccccc1`, the concentration for an effect of 90% (IC90) was more than 10 µM. The IC50 (HEPG2TOX_HILL_SLOPE 8.27, HEPG2TOX_R_SQUARED 0.417, read-out: LUCIFERASE INFECTION ASSAY - IC50) was more than 10 µM.
With `CN(C)C(=O)c1ccc(-c2cc3c(Nc4cccc(OC(F)(F)F)c4)nccc3[nH]2)cc1`, the IC90 is more than 10 µM. For the setting “HEPG2TOX_HILL_SLOPE 8.24, HEPG2TOX_R_SQUARED 0.393, PBLUC_HILL_SLOPE 3.02, PBLUC_R_SQUARED 0.574, read-out: LUCIFERASE INFECTION ASSAY - IC50”, the IC50 is 4.92 µM.
On to `CSc1nnc(-c2csc(S(=O)(=O)Oc3cc(Cl)cc(Cl)c3)c2)n1C`, for which the 90% effect concentration (IC90) was more than 7.56 µM. In addition, the IC50 under setting [1] was more than 7.56 µM.
For the compound `Cc1ccc(C)c(-n2c(SCCOc3ccccc3C)nnc2-c2ccccc2Cl)c1`, the IC90 was more than 10 µM. The IC50 (FFLUC_HILL_SLOPE 1.3, FFLUC_R_SQUARED 0.027, HEPG2TOX_HILL_SLOPE 7.63, HEPG2TOX_R_SQUARED 0.817, read-out: LUCIFERASE INFECTION ASSAY - IC50) is more than 10 µM.
As for `CSc1sc(-c2ccnc(SCc3ccc(Cl)cc3)n2)c(-c2ccccc2)c1C#N`, the IC90 is more than 7.08 µM. Moreover, the concentration for half-maximal inhibition (IC50) (PBLUC_HILL_SLOPE 3.73, PBLUC_R_SQUARED 0.295, read-out: LUCIFERASE INFECTION ASSAY - IC50) was 4.71 µM.
Consider `Cc1ccc(-n2c(SCc3c(-c4ccccc4)nc4sccn34)nnc2-c2ccccc2)cc1C`, for which the IC90 was determined as 3.83 µM. Also, the IC50 (FFLUC_HILL_SLOPE 2.28, FFLUC_R_SQUARED 0.669, PBLUC_HILL_SLOPE 14.9, PBLUC_R_SQUARED 0.408, read-out: LUCIFERASE INFECTION ASSAY - IC50) amounted to 3.31 µM.
